According to patent US8048924B2, “Methods and compositions employing 4-aminophenylacetic acid compounds” (Biocon Limited, priority 2001, dated 2011):
“Also recorded” adds a separate entry of the source.

System: Clostridium difficile toxin A-induced colitis
Test: Toxin A-induced colitis, acute intraluminal pretreatment of isolated colonic segment
Type: in vivo, Sprague-Dawley rats
Settings: for toxin A-induced structural damage of the colon (H&E) / percent inhibition of toxin A-induced MPO activity / percent inhibition of toxin A-induced luminal fluid accumulation: 30 minutes before toxin A; for relative potency and interaction for inhibition of acute toxin A-induced colitis: given alone versus together
Description: Drug Administration. In studies using chronic administration, sulfasalazine, APAZA™, and 4-APAA were administered in the drinking water at doses ranging from 0.1-100 mg/kg·d for 5 days. Sulfasalazine and APAZA™ were initially dissolved in 0.1 N NaOH at 30 times the desired final concentration and then the pH was adjusted to 8.5 with 1 N HCl and the solution was diluted 30-fold with distilled water. 4-APAA was dissolved in water. On the fifth day, the rats were fasted overnight (with access to their drinking water±sulfasalazine, APAZA™, or 4-APAA ad lib), anesthetized, and isolated colonic segments were surgically created as described below. In studies using acute administration, the rats were pretreated by injection of 4-APAA at doses of 10 or 100 μg in 200 μl of PBS (pH 7.4) into the lumen of the colonic segment using a 27 ga syringe needle. Toxin A (10 μg) in 200 μl of PBS (pH 7.4) was tested alone or injected into the lumen of the colonic segment 30 minutes after 4-APAA using a 27 ga syringe needle.
Surgery. Isolated colonic segments were created in male Sprague-Dawley rats (150-175 g) as described previously for isolated ileal segments (see, Gastroenterol. 111: 1272-1280 (1996) and Proc. Natl. Acad. Sci. USA 91: 947-951 (1994). Rats fasted overnight with free access to drinking water were anesthetized by intramuscular injection of 67 mg/kg ketamine:33 mg/kg xylazine. A midline abdominal incision was made and colonic segments 5 cm in length were created by ligation with 4-0 silk sutures, taking care not to disturb the vascular supply. Toxin A (10 μg) in 400 μl of PBS (pH 7.4) was injected into the lumen of the colonic segment using a 27 ga syringe needle. Control rats were prepared similarly and their colonic segments were injected with the vehicles. The midline incision was then closed with a running suture, and the rats were placed on a heating pad at 37° C. for 3 hours. After 3 hours, the rats were euthanized and samples of the treated colonic segments were taken for analysis in vitro.
Histopathology. The severity of colonic histological damage was assessed using formalin-fixed, paraffin-embedded, H&E-stained sections.
Luminal Fluid Accumulation. Luminal fluid accumulation was measured gravimetrically. After 3 hours of treatment, the isolated colonic segments were removed, weighed, and their lengths were measured. Luminal fluid accumulation is expressed as mg wet weight per cm length.
Myeloperoxidase Activity. Myeloperoxidase (MPO) activity was measured as described previously (see, J. Invest. Dermatol. 78: 206-209 (1982)). Briefly, pieces of control and treated colonic segments were homogenized in 0.5% hexadecyltrimethylammonium bromide in 50 mM KH2PO4 (pH 6), freeze/thawed three times, centrifuged at 4° C. for 2 minutes, and then the absorbance of each supernatant was read at 460 nm at 0, 30, and 60 seconds after the addition of 2.9 ml of o-dianisidine dihydrochloride to 0.1 ml supernatant. The maximal change in absorbance per minute was used to calculate the units of MPO activity based on the molar absorbency index of oxidized o-dianisidine of 1.13×10^4 M^−1 cm^−1. The results are expressed as MPO units of activity per mg of tissue wet weight.
Adult male Sprague-Dawley rats (175-225 grams body weight) were purchased from Charles River Labs (Raleigh, N.C.). 4-APAA and 5-ASA were separately injected into the lumen of an isolated segment of the rat colon at doses of 0.01, 0.1, 1, and 10 μg (in volumes of 200 μl) 30 minutes prior to injection of 10 μg of Clostridium difficile toxin A. In a follow-up study, a combined dose of 10 ng (0.01 μg) each of 4-APAA and 5-ASA was injected prior to toxin A.
[…] Colonic inflammation was assessed by quantitating luminal fluid accumulation and myeloperoxidase content in the colonic segment tissue, and by examination of colonic structural damage using hematoxylin & eosin-stained sections of the treated colonic segment.
Surgery. […]

[1] = 0.01 μg (10 ng) each, intraluminal

SMILES	toxin A-induced MPO activity, significance of inhibition [1]	toxin A-induced luminal fluid accumulation, significance of inhibition [1]	toxin A-induced structural damage of the colon (H&E) [1]	toxin A-induced luminal fluid accumulation, significance of inhibition (0.1 μg intraluminal)	toxin A-induced structural damage of the colon (H&E) (0.1 μg intraluminal)	toxin A-induced MPO activity, significance of inhibition (1.0 μg intraluminal)	toxin A-induced luminal fluid accumulation, significance of inhibition (1.0 μg intraluminal)	toxin A-induced structural damage of the colon (H&E) (1.0 μg intraluminal)	toxin A-induced MPO activity, significance of inhibition (10 μg intraluminal)	toxin A-induced luminal fluid accumulation, significance of inhibition (10 μg intraluminal)	toxin A-induced structural damage of the colon (H&E) (10 μg intraluminal)	relative potency and interaction for inhibition of acute toxin A-induced colitis	percent inhibition of toxin A-induced MPO activity (10 μg intraluminal)	percent inhibition of toxin A-induced luminal fluid accumulation (10 μg intraluminal)	percent inhibition of toxin A-induced MPO activity (100 μg intraluminal)	percent inhibition of toxin A-induced luminal fluid accumulation (100 μg intraluminal)	toxin A-induced structural damage of the colon (H&E) (100 μg intraluminal)	lowest dose that strongly inhibited toxin A-induced colitis in this experiment (intraluminal injection 30 minutes before toxin A, 10 and 100 μg tested)
Nc1ccc(O)c(C(=O)O)c1 [5-ASA, 5-amino-2-hydroxy-benzoic acid, reference compound]	not significantly inhibited	significantly inhibited	did not prevent	significantly inhibited	partially preserved surface ulceration	significantly inhibited	significantly inhibited	mucosal folding was also largely preserved	significantly inhibited	significantly inhibited	virtually completely protected	approximately equipotent	–	–	–	–	–	–
Nc1ccc(CC(=O)O)cc1 [4-APAA, (4-aminophenyl)-acetic acid]	not significantly inhibited	significantly inhibited	did not prevent	significantly inhibited	preserved mucosal folding	significantly inhibited	significantly inhibited	preserved mucosal folding	significantly inhibited	significantly inhibited	strongly protected; also recorded: virtually completely protected	approximately equipotent	91±8%	52±4%	89±10%	80±5%	strongly protected	10 μg/segment
